From patent US20170210751A1, “PRMT5 INHIBITORS AND USES THEREOF” (Epizyme, Inc., priority 2014, published 2017) come the findings set out here.

Molecules are shown by their SMILES. Some results are limits rather than exact numbers.

One experiment addresses T1, PRMT5/MEP50 (Homo sapiens, UniProt O14744).
T1 construct: Flag-PRMT5; made in house; host or cells: Spodoptera frugiperda (SF9) insect cells, baculovirus (pDEST8)
Put plainly: PRMT5 Biochemical Assay (PRMT5/MEP50 enzyme assay on peptide substrate, 3H-SAM Flashplate). As to conditions: PRMT5/MEP50 4 nM, 3H-SAM 75 nM, peptide 40 nM, 30 min preincubation at 25 degrees Celsius. Summed up: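 FLAG-PRMT5/His-MEP50 from Sf9 cells (4 nM) preincubated 30 min at 25 °C with compounds, then reacted with 75 nM 3H-SAM and 40 nM biotinylated histone H4 1-15 peptide in Bicine pH 7.6, 1% DMSO. Stopped with 600 uM cold SAM; streptavidin Flashplate capture, scintillation counts; % inhibition fitted to 3- or 4-parameter curve.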

Another experiment relates to Z-138 cell line. Put plainly: Z-138 Proliferation Assay (Cell Titer Glo). The format is cell-based. As to conditions: Homo sapiens, 120 h; Z-138 cells, 5 days incubation, ATP (Cell Titer Glo). Summed up: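 Z-138 cells in RPMI with 10% FBS exposed 5 days at 37 °C to nine-point 3-fold dilutions, top 20 μM final, 0.2% DMSO, triplicate. ATP-based CellTiter-Glo luminescence; IC50 from 4-parameter fit of normalized curves.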

T1 sequence (O14744 with tags, fused parts or gaps): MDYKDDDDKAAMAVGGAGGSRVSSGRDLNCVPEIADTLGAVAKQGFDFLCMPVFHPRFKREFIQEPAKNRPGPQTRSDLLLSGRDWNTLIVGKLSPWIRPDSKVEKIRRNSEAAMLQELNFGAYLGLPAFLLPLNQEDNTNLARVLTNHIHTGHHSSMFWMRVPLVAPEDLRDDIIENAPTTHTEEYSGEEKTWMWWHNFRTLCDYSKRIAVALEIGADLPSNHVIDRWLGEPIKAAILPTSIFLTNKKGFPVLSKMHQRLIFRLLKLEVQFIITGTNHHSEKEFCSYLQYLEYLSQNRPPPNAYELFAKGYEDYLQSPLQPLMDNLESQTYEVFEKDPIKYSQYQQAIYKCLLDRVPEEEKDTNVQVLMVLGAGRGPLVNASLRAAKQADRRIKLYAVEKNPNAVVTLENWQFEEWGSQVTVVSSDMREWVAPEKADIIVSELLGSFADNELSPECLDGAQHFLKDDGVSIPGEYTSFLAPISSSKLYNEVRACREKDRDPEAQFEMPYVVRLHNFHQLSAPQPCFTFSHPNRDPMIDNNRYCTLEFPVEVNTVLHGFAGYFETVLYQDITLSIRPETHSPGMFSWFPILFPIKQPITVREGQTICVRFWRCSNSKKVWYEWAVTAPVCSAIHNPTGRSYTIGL
T1 sequence (Q9BQA1 with tags, fused parts or gaps partner limits assumed): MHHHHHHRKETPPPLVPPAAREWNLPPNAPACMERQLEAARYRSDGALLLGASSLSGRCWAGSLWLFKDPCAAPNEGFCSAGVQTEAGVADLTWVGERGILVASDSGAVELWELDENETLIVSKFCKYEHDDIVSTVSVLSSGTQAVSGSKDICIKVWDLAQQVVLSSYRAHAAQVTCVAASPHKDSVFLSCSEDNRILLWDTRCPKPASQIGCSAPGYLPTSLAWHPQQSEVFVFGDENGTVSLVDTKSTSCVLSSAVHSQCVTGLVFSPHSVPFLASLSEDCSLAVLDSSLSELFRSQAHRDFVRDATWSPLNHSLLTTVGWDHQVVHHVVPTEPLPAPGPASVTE

In the case of `O=C(NC[C@H](O)CN1CCc2sccc2C1)c1cc(NC2COC2)ncn1` [Compound 1-1, (S)—N-(3-(6,7-dihydrothieno[3,2-c]pyridin-5(4H)-yl)-2-hydroxypropyl)-6-(oxetan-3-ylamino)pyrimidine-4-carboxamide], the IC50 on PRMT5/MEP50 is below 0.1 µM. Besides, the EC50 in the experiment with Z-138 cell line lay in the range of 1 to 10 µM.
